IC50 data for seven compounds are collected here from BindingDB's records for doi:10.1016/j.bmc.2005.12.063 (Kyushu Institute of Technology, 2006).

Peptide text beside a SMILES is read from it.

Assay in all cases: HDAC Enzyme Activity Assay
Conditions in all cases: pH 8; 37 °C

Assay [1] deals with Histone deacetylase 1 (Homo sapiens, UniProt Q13547).
The target in assay [2] is Histone deacetylase 4 (Homo sapiens, UniProt P56524).
Assay [3] addresses T1, Histone deacetylase 6 (Mus musculus, UniProt Q9Z2V5).
T1 sequence (Q9Z2V5 whole entry): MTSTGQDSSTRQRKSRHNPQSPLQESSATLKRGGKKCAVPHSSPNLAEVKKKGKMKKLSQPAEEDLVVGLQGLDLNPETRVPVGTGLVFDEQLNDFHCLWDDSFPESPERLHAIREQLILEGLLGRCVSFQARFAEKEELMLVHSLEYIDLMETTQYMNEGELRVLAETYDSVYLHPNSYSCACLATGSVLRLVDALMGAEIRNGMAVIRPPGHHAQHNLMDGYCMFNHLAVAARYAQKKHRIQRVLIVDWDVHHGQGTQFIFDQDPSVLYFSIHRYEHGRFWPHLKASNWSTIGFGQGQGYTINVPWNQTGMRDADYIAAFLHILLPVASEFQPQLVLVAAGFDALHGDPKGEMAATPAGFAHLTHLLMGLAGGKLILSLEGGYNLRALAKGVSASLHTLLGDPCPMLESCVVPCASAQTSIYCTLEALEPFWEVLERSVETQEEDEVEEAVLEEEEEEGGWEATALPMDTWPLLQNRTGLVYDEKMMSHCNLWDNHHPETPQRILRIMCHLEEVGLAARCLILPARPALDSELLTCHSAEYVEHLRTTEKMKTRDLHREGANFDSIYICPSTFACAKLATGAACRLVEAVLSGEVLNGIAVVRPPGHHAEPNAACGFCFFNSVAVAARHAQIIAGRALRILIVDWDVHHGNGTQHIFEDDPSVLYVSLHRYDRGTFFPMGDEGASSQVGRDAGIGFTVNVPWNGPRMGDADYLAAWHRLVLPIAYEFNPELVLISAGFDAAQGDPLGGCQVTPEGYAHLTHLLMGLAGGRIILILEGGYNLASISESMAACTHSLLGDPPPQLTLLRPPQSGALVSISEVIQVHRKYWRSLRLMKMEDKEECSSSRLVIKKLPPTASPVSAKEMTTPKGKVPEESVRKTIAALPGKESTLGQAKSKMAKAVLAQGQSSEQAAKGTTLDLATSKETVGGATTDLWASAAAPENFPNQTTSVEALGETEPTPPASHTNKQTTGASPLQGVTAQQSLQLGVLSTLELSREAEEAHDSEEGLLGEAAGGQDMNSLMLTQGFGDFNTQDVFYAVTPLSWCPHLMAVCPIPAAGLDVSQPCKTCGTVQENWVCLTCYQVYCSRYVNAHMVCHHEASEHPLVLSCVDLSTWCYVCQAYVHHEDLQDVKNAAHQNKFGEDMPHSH

Histone deacetylase 4, sequence (P56524 whole entry): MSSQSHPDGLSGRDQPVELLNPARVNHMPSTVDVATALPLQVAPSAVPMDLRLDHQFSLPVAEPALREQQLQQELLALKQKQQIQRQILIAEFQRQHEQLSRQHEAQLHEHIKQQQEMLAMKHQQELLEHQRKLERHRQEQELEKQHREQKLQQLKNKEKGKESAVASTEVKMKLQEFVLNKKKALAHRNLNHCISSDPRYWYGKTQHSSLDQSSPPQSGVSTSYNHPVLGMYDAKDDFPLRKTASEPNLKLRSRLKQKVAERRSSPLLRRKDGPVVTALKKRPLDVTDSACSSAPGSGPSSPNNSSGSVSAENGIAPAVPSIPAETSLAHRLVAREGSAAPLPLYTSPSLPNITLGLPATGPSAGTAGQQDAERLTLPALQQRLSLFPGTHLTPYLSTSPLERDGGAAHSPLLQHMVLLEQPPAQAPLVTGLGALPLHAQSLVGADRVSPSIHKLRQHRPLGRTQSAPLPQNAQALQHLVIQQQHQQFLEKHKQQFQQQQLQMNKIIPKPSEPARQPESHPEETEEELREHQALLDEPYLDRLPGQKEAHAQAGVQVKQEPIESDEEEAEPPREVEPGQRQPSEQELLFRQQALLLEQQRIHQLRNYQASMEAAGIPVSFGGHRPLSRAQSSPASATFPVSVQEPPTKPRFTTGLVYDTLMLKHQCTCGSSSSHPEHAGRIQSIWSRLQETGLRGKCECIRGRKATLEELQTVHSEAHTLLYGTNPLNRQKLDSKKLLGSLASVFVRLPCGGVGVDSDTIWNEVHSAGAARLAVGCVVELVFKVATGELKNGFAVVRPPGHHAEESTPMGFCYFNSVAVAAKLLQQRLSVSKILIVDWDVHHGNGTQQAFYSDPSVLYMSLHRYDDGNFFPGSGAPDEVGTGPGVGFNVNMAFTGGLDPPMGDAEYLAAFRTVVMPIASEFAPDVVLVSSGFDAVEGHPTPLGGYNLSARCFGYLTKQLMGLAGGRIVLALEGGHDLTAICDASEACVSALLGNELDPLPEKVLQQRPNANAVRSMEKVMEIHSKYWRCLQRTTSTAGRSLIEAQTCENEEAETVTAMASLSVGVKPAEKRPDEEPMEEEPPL
Histone deacetylase 1, sequence (Q13547 whole entry): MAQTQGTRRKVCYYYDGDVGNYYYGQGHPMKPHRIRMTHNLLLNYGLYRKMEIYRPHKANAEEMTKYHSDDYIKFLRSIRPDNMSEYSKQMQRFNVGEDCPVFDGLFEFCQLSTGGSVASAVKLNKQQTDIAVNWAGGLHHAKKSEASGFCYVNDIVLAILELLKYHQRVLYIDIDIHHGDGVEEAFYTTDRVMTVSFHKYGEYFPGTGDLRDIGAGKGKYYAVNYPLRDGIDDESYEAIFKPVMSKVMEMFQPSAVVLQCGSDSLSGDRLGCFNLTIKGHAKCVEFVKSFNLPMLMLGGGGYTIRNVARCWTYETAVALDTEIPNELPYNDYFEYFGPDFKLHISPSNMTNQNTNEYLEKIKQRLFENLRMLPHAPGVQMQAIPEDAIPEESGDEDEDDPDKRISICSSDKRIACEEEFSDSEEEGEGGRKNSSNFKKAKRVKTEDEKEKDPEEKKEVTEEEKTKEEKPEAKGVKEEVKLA

In general, IC50 refers to the concentration that inhibits the measured activity by half. Higher therefore signals a need for much substance. With `CC1(C)NC(=O)[C@H](CCCCCC=O)NC(=O)[C@H]2CCCN2C(=O)[C@H](Cc2ccccc2)NC1=O` [6-[(3S,9S,14aR)-9-benzyl-6,6-dimethyl-1,4,7,10-tetraoxo-tetradecahydropyrrolo[1,2-a][,,,]cyclododecan-3-yl]hexanal], the results for the IC50 in assay [1], in assay [2] and in assay [3] were 4.33 µM, 1.29 µM and 14.1 µM, respectively.
`CC(=O)CCCCC[C@@H]1NC(=O)[C@H]2CCCN2C(=O)[C@H](Cc2ccccc2)NC(=O)C(C)(C)NC1=O` [(3S,9S,14aR)-9-benzyl-6,6-dimethyl-3-(6-oxoheptyl)-tetradecahydropyrrolo[1,2-a][,,,]cyclododecane-1,4,7,10-tetrone]: the figures for the IC50 in assay [1], in assay [2] and in assay [3] were 1.08 µM, 0.29 µM and 3.7 µM, respectively.
For `CC1(C)NC(=O)[C@H](CCCCCC(O)CO)NC(=O)[C@H]2CCCN2C(=O)[C@H](Cc2ccccc2)NC1=O` (stereo partly drawn) [(3S,9S,14aR)-9-benzyl-3-(6,7-dihydroxyheptyl)-6,6-dimethyl-tetradecahydropyrrolo[1,2-a][,,,]cyclododecane-1,4,7,10-tetrone], the 50% inhibitory concentration (IC50) in assay [1], in assay [2] and in assay [3] was over 100 µM throughout.
`CC1(C)NC(=O)[C@H](CCCCCC2CO2)NC(=O)[C@H]2CCCN2C(=O)[C@H](Cc2ccccc2)NC1=O` (stereo partly drawn) [(3S,9S,14aR)-9-benzyl-6,6-dimethyl-3-[5-(oxiran-2-yl)pentyl]-tetradecahydropyrrolo[1,2-a][,,,]cyclododecane-1,4,7,10-tetrone]: the IC50 in assay [1] is 4.69 µM; in assay [2], 4.05 µM; in assay [3] it was over 100 µM.
In the case of `CC1(C)NC(=O)[C@H](CCCCCC(=O)CO)NC(=O)[C@H]2CCCN2C(=O)[C@H](Cc2ccccc2)NC1=O` [(3S,9S,14aR)-9-benzyl-3-(7-hydroxy-6-oxoheptyl)-6,6-dimethyl-tetradecahydropyrrolo[1,2-a][,,,]cyclododecane-1,4,7,10-tetrone], the IC50 in assay [1] turned out to be 0.223 µM; in assay [2], 0.0604 µM; in assay [3], 0.887 µM.
The like results for `C=CCCCCC[C@@H]1NC(=O)[C@H]2CCCN2C(=O)[C@H](Cc2ccccc2)NC(=O)C(C)(C)NC1=O` [(3S,9S,14aR)-9-benzyl-3-(hept-6-en-1-yl)-6,6-dimethyl-tetradecahydropyrrolo[1,2-a][,,,]cyclododecane-1,4,7,10-tetrone] (HELM PEPTIDE1{[Aib].F.[dP].[C=CCCCCC[C@H](N[*:1])C(=O)[*:2]]}$PEPTIDE1,PEPTIDE1,1:R1-4:R2$$$V2.0) were, in that order, over 100 µM, over 100 µM and over 100 µM.
`CC1(C)NC(=O)[C@H](CCCCCC(=O)CBr)NC(=O)[C@H]2CCCN2C(=O)[C@H](Cc2ccccc2)NC1=O` [(3S,9S,14aR)-9-benzyl-3-(7-bromo-6-oxoheptyl)-6,6-dimethyl-tetradecahydropyrrolo[1,2-a][,,,]cyclododecane-1,4,7,10-tetrone] gave an IC50 in assay [2] of 0.0595 µM.
